How the values were obtained:
[1] = tested on: BXSB-Yaa mice; experiment: BXSB-Yaa strain lupus disease model; assay type: in vivo, mouse; conditions: for proteinuria: UACR; for Grade 3/4 nephritis onset: kidney histopathology
Description: Figure Legend: Twelve week old BXSB-Yaa mice were randomized into groups with equivalent median anti-dsDNA titers and treated once-a-day orally with Vehicle (Veh; 0.5% methyl-cellulose) alone or 300 mg/kg ER-892887 for 14 weeks total. (A) All mice were sacrificed at 26 weeks of age and final anti-dsDNA, anti-Sm/nRNP, and anti-RiboP titers were evaluated by ELISA as compared to titers observed in 6 wk old pre-diseased mice. (B) Approximately one week prior to sacrifice (25 weeks of age, 13 weeks of treatment), mice were housed 1-2 per cage in metabolic cages for 18 hours to collect urine, and the Urinary Albumin Creatinine Ratio (UACR, proteinuria) was determined for each animal as an indirect measure of kidney function. (C) At the time of sacrifice, kidneys were collected from individual mice, fixed in 10% formalin for 24 hours, embedded in paraffin, and H&E stained sections were generated for histopathology assessment in a blinded fashion. (D) Summary of mortality observed in the SLE-8 study. Statistical significance was determined by Mann-Whitney test for (A).
Figure Legend: Nine week old male BXSB-Yaa mice were treated once-a-day orally with Vehicle (Veh; 0.5% methyl-cellulose) alone or 100 mg/kg or 300 mg/kg ER-885454 for 15 weeks total. All mice were sacrificed at 24 weeks of age and final anti-dsDNA (A) and anti-Sm/RNP (B) titers were evaluated by ELISA. (C) Approximately one week prior to sacrifice, mice were housed 1-2 per cage in metabolic cages for 18 hours to collect urine, and the Urinary Albumin Creatinine Ratio (UACR, proteinuria) was determined for each animal as an indirect measure of kidney function. (D) At the time of sacrifice, kidneys were collected from individual mice, fixed in 10% formalin for 24 hours, embedded in paraffin, and H&E stained sections were generated for histopathology assessment in a blinded fashion. Statistical significance was determined by Mann-Whitney test for (A), (B), and (C) above.
Figure Legend: Seventeen week old BXSB-Yaa mice were randomized into two groups with equivalent median anti-dsDNA titers and treated once-a-day orally with Vehicle (Veh; 0.5% methyl-cellulose) alone or 300 mg/kg ER-885454 for 13 weeks total. All mice were sacrificed at 30 weeks of age and final anti-dsDNA (A) and anti-Sm/RNP (B) titers were evaluated by ELISA as compared to titers observed in 7 wk old pre-diseased mice. (C) Approximately one week prior to sacrifice, mice were housed 1-2 per cage in metabolic cages for 18 hours to collect urine, and the Urinary Albumin Creatinine Ratio (UACR, proteinuria) was determined for each animal as an indirect measure of kidney function. (D) At the time of sacrifice, kidneys were collected from individual mice, fixed in 10% formalin for 24 hours, embedded in paraffin, and H&E stained sections were generated for histopathology assessment in a blinded fashion. Statistical significance was determined by Mann-Whitney test for (A), (B), and (C) above.
Male BXSB-Yaa and female NZBWF1/J mice were purchased from Jackson Labs (Bar Harbor, Me.), both of which manifest with spontaneous lupus disease. Female DBA/1 mice were purchased from Harlan Laboratories (Indianapolis, Ind.) and at the indicated ages given an intraperitoneal injection of 0.5 ml pristane (2,6,10,14-Tetramethylpentadecane; Sigma, St. Louis, Mo.) to chemically induce lupus disease or of 0.5 ml PBS to generate age-matched, non-diseased control mice. Mice were dosed daily by oral administration of compound or drug in 0.5% methylcellulose, for the time period indicated.
Anti-dsDNA, -Sm/nRNP, -RiboP, and Histone titers were evaluated by standard ELISA approach. Briefly, 96-well EIA/RIA ELISA plates (Corning) were coated with 100 ul of diluted antigen in PBS for 90 minutes at room temperature as follows (final concentrations indicated): 10 U/ml Sm/nRNP complex (Immunovision), 10 ug/ml calf thymus dsDNA (Sigma), 5 U/ml RiboP (Immunovision), and 5 ug/ml Histone (Immunovision). […]

[2] = target: T1, Human TLR1/2 (Homo sapiens, UniProt O60603+Q15399); experiment: Human PBMC cell-based assay, Pam3CSK4 stimulus, IL-6 ELISA; conditions: Hu PBMC; ligand Pam3CSK4; analyte IL-6
T1 construct: endogenous in cells; host or cells: primary human PBMC from healthy donor blood
Description: Human peripheral blood mononuclear cells (PBMC) were isolated from freshly-drawn heparinized (10 USP units/ml, Hospira, Lakeforest, Ill.) healthy donor whole blood by density gradient (Histopaque® 1077, Sigma, Inc., St. Louis, Mo.). Briefly, 25 ml blood was diluted with 15 ml PBS (without Ca^2+, Mg^2+) in a 50 ml conical tube, and 12 ml Histopaque was underlaid using a spinal needle. Tubes were centrifuged for 45 minutes at 1200 rpm (350×g), and PBMC were collected from the buffy coat. Cells were then washed twice in PBS, and red blood cells were lysed by suspension in 5 ml ammonium chloride solution (1× Red Blood Cell Lysis Buffer, eBioscience) for 5 minutes at room temperature. […]
Antagonist compounds solubilized and serial diluted in 100% DMSO were added in triplicate to cells to yield a final concentration of 0.1% DMSO (v/v). […] Cell culture supernatants were collected, and levels of various human cytokines were assessed as indicated by standard ELISA procedure according to the manufacturer's recommended protocol (BD Biosciences, Inc., San Diego, Calif.).

T1 sequence (Q15399 25-786): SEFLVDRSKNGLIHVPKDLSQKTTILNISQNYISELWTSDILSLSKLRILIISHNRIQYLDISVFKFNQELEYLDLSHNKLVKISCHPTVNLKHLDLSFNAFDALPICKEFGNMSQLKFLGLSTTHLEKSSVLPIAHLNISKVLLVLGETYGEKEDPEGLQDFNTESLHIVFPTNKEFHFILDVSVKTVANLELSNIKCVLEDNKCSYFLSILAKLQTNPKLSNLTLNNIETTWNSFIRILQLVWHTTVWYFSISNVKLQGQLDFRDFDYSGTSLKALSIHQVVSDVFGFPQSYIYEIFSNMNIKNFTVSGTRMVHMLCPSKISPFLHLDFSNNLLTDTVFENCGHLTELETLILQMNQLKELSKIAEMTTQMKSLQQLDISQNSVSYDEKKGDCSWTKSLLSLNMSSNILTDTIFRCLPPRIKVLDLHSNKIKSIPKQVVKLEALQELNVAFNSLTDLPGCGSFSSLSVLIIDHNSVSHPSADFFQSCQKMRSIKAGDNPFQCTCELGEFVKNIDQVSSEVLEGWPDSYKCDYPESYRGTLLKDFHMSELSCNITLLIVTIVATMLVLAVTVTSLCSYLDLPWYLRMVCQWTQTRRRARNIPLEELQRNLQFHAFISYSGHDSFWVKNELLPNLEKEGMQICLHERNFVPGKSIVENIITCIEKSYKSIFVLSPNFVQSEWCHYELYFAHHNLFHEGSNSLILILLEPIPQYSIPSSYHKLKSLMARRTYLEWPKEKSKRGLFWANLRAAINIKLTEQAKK
T1 sequence (O60603 19-784 limits assumed): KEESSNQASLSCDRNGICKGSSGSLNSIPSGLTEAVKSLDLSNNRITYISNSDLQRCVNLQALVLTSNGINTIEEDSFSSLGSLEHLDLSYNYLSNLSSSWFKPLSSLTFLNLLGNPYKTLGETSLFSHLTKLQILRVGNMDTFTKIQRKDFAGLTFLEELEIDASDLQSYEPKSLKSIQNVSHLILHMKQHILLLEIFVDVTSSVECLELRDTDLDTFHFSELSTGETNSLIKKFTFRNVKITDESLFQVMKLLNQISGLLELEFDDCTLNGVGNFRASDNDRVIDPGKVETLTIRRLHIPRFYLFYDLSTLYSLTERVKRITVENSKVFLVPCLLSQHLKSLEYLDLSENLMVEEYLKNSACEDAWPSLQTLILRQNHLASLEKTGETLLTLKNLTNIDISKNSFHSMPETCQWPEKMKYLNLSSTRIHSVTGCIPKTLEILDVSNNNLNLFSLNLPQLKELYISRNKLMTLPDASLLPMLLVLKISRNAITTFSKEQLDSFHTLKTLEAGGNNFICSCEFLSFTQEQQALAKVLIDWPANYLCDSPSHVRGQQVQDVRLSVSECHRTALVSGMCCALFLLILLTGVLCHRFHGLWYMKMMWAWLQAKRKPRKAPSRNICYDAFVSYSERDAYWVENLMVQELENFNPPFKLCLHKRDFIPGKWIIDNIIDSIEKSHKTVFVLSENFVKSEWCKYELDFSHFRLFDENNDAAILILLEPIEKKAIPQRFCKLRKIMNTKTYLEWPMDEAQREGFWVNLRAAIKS

Compound	proteinuria [1]	Grade 3/4 nephritis onset [1]	anti-Sm/nRNP titers ([1]; once-a-day oral)	anti-dsDNA titers ([1]; once-a-day oral)	IC50 [2]
COc1ccc([C@@H]2C[C@H](C(F)(F)F)n3nc(-c4ccncc4)cc3N2)cc1OC [ER-885454]	significantly reduced proteinuria	complete prevention	significantly reduced	significantly reduced	
COc1ccc([C@@H]2C[C@H](C(F)(F)F)n3nc(-c4ccc(C(=O)N5CCNCC5)cc4)cc3N2)cc1OC [ER-892887, (4-((5S,7R)-5-(3,4-dimethoxyphenyl)-7-(trifluoromethyl)-4,5,6,7-tetrahydropyrazolo[1,5-a]pyrimidin-2-yl)phenyl)(piperazin-1-yl)methanone]	trend towards reduced proteinuria	complete prevention		significantly reduced	> 10 µM

From US9126999B2, “Tetrahydropyrazolopyrimidine compounds” (EISAI R&D MANAGEMENT CO., LTD., priority 2012, dated 2015)
